Patent US10758500B2, “Treating androgen deprivation therapy induced hot flashes and bone loss in men using cis-clomiphene” (ASPEN PARK PHARMACEUTICALS, INC., priority 2014, dated 2020)

Test system: Men who have advance prostate cancer on ADT
Test: Effect of cis-clomiphene on bone turnover markers and BMD (Example 2)
Format: in vivo, human
Settings: 50 mg/d for 6 months, Day 180 compared with baseline
Method: Men who have advance prostate cancer on ADT are treated with 50 mg/d of substantially cis-clomiphene for 6 months. At Day 180, baseline bone turnover markers like serum bone specific alkaline phosphatase and are compared to current values as well as BMD by DEXA.
Bone analysis methodology may be carried out as described in U.S. Patent Publication No. 2004/0214898, the pertinent contents of which are incorporated herein by reference.

## CCN(CC)CCOc1ccc(/C(=C(/Cl)c2ccccc2)c2ccccc2)cc1 [cis-clomiphene]
  effects on bone: bone turnover markers (serum bone specific alkaline phosphatase) and BMD by DEXA: estrogenic effects on bone favorably affecting bone turnover markers and BMD
